Experimental data published in US7829528B2, “Compositions and methods for treating STAT-6 associated diseases or conditions” (The Rockefeller University, priority 2004, dated 2010).
Where no end group is shown, it is not given here.

Columns and labels:
IL-13 mRNA = experiment: Semiquantitative RT-PCR of IL-13 mRNA in splenocytes; type: cell-based, BALB/c mice; details: splenocytes cultured with ovalbumin plus peptide
Method: (§1) The levels of mRNA encoding IL-4, IL-13 and IFN-gamma were also evaluated by semiquantitative RT-PCR analysis. Ovalbumin-induced expression of both IL-4 and IL-13 mRNA was inhibited in splenocytes cultured with the STAT-6-IP and not the STAT-6-CP. […] The number of CD4+ T cells producing IL-4 was also quantified by intracellular cytokine staining. When splenocytes from ovalbumin-sensitized mice were cultured with ovalbumin, there was a significant increase in the number of CD4+ lymphocytes expressing IL-4 (Table 4). The increase in IL-4 expression was abrogated in splenocytes cultured with ovalbumin in the presence of the STAT-6-IP, while the STAT-6-CP had no effect.
(§2) Reverse transcriptase (RT)-PCR was used to monitor expression of mRNAs encoding IL-4, IL-13 and IFN-gamma. Materials for RNA extraction and RT-PCR were purchased from INVITROGEN™ Canada (Burlington, Ontario). Total RNA was extracted from splenocytes, treated with DNAse, and 1 μg of RNA was reverse transcribed into cDNA using SUPERSCRIPT™ II reverse transcriptase. […] PCR products were resolved by gel electrophoresis and visualized and quantified on a FLUORCHEM™ 8000 Imaging System (Alpha Innotech, San Leandro, Calif.) using ALPHAEASE™ software (Alpha Innotech). […]

IFN-gamma mRNA = experiment: Semiquantitative RT-PCR of IFN-gamma mRNA in splenocytes; type: cell-based, BALB/c mice; details: splenocytes cultured with ovalbumin plus peptide
Method: as §1, §2

[1] = tested on: CD4+ lymphocytes expressing IL-4; experiment: Intracellular cytokine staining of CD4+ T cells producing IL-4 (flow cytometry); type: cell-based, BALB/c mice; details: ovalbumin + 100 μM peptide, ovalbumin alone 90.21 ± 8.02
Method: as §1
BALB/c mice were sensitized systemically by two weekly i.p. injections of 0.025% ovalbumin mixed with 4 mg/mL Al(OH)3. One week after the second sensitization, mice were sacrificed and spleens harvested. A single cell suspension of splenocytes (5×10^6 cells/mL) was cultured in RPMI-1640 medium containing 10% heat-inactivated fetal bovine serum and 2 mM L-glutamine, 50 μM 2-mercaptoethanol, 100 U/mL penicillin, and 100 μg/mL streptomycin sulfate. […] After four days, culture supernatants were harvested to quantify cytokine production by ELISA. […] Cytokine expression was monitored by flow cytometry and analyzed using CELLQUEST™ software (Becton Dickinson). […]

[2] = tested on: ovalbumin-sensitized mice; experiment: Airway hyperresponsiveness to methacholine (respiratory system resistance, FlexiVent); type: in vivo, BALB/c mice
Method: Six-to-eight week-old male BALB/c mice were obtained from Harlan-Sprague Dawley (Indianapolis, Ind.) and were housed in a conventional animal facility. For each experimental condition, a minimum of 6-8 animals was used. Awake animals were sensitized five days per week for each of two weeks by instillation in each nostril of 5 μL 1% ovalbumin in PBS. Alternatively, animals were sensitized by two weekly systemic, i.p. injections of 0.025% ovalbumin mixed with 4 mg/mL Al(OH)3. Following two weeks rest, animals were challenged for five days by intranasal instillation of 1% ovalbumin. Animals treated with peptides received the STAT-6-IP (15, 50, or 150 μg) or STAT-6-CP (50 or 150 μg) in 10 μL PBS 30 minutes prior to each ovalbumin challenge. Twenty-four hours after the last ovalbumin challenge, mice were deeply anaesthetized with xylazine and sodium pentobarbital and paralyzed with pancuronium bromide. The tail vein was cannulated for drug administration and heart rate was monitored by EKG. The trachea was exposed, a cannula inserted and secured with silk ties and then attached to a computer-controlled small-animal ventilator (FlexiVent; SCIREQ, Montreal, Quebec). Mice were ventilated quasi-sinusoidally with a tidal volume of 8 mL/kg and respiratory rate of 150 breaths/minute. Respiratory system resistance was measured. Airway hyperresponsiveness was by low dose methacholine. Methacholine was injected through the tail vein at dose of 10, 20, 40, 80, 160, 320 μg/kg and the maximal resistance and elastance were recorded. Afterward, the trachea was isolated and a 22-gauge stainless steel catheter was inserted into the proximal trachea and secured with 4-0 silk suture. The lungs were lavaged using 0.5 mL of ice cold 0.9% NaCl. The bronchoalveolar lavage (BAL) fluid was centrifuged to remove intact cells and the supernatant stored at −20° C. for IL-13 analysis by ELISA. […] Six fields were counted, each encompassing 100 cells per slide, and means obtained.

## YARAAARQARAGRGFVSTT [STAT-6-CP, STAT-6 Tyr-641 mutant, control peptide]
IL-13 mRNA
  Inhibition of ovalbumin-induced expression of IL-13 mRNA: not
IFN-gamma mRNA
  Expression of IFN-gamma mRNA: did not change
[1]
  Percentage of IL4 positive cells ± SEM: 92.13 ± 5.62 Percentage
[2]; dose response, 150 μg peptide, ovalbumin control 2.02, normal saline 1.41
  Response Rmax (cm H2O × s/mL ± SEM): 2.53 (±0.31) cm H2O × s/mL
[2]; i.n. ovalbumin sensitization, 50 microgram peptide, ovalbumin control 1.92, normal saline 1.19
  Response Rmax (cm H2O × s/mL ± SEM): 1.80 ± 0.07 cm H2O × s/mL
[2]; i.p. ovalbumin sensitization, 50 microgram peptide, ovalbumin control 1.87, normal saline 1.19
  Response Rmax (cm H2O × s/mL ± SEM): 1.85 ± 0.06 cm H2O × s/mL
